Calls of active or inactive are those of the source. No cut-off for these calls is given here.
Experiments:
[1] = molecular target: T1, Metabotropic glutamate receptor 4 (Homo sapiens, UniProt Q14833); assay: Positive allosteric modulator activity at human mGlu4 receptor expressed in CHO cells expressing Gqi5 by calcium mobilization assay; type: functional, cell-based
[2] = molecular target: T1, Metabotropic glutamate receptor 4; assay: Positive allosteric modulation of human mGlu4 receptor expressed in CHO cells coexpressing Gqi5 assessed as potentiation of glutamate-induced calcium mobilization at 30 uM relative to (-)-PHCCC; type: functional, cell-based
Rattus norvegicus [3] = assay: Reversal of haloperidol-induced catalepsy in Sprague-Dawley rat at 1 mg/kg, po administered 60 mins after haloperidol-challenge measured after 30 mins; type: functional, organism-based
Rattus norvegicus [4] = assay: Reversal of haloperidol-induced catalepsy in Sprague-Dawley rat at 10 mg/kg, po administered 60 mins after haloperidol-challenge measured after 30 mins; type: functional, organism-based
Brain [5] = assay: Partition coefficient in brain of Sprague-Dawley rat model of haloperidol-induced catalepsy at 1 to 10 mg/kg, po administered 60 mins after haloperidol-challenge measured after 30 mins; type: ADME, organism-based; details: 0.5 h
Cytochrome P450 2C9 = Cytochrome P450 2C9 (Homo sapiens, UniProt P11712); assay: Inhibition of CYP2C9 in human liver microsomes using 4-hydroxydiclofenac as substrate; type: ADME
Chain of Cytochrome P450 2C9 (P11712 whole entry): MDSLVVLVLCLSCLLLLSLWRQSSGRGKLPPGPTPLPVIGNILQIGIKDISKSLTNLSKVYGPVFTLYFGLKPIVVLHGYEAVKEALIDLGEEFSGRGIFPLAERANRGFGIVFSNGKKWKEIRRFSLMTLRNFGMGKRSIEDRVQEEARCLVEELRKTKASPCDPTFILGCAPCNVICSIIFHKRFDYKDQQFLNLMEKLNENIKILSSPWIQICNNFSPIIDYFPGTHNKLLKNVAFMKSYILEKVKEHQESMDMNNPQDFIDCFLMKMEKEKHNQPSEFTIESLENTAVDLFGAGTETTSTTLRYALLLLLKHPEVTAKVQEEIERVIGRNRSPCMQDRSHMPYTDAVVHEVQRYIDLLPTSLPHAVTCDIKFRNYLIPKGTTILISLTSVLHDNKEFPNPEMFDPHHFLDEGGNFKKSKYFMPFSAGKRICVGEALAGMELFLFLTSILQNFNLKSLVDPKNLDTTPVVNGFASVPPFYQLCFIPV

[6] = Fraction unbound in human plasma; type: ADME, cell-free
[7] = Volume of distribution at steady state in Sprague-Dawley rat by LC/MS analysis; type: ADME, organism-based; details: in vivo, read-out: Vdss
[8] = Binding affinity to human P-gp assessed as efflux ratio by cell based assay; type: ADME
[9] = Intrinsic clearance in human hepatic microsomes; type: ADME, Liver; details: read-out: CLH
Rattus norvegicus [10] = assay: Reversal of haloperidol-induced catalepsy in Sprague-Dawley rat at 3 mg/kg, po administered 60 mins after haloperidol-challenge measured after 30 mins; type: functional, organism-based
[11] = Drug level in brain of Sprague-Dawley rat model of haloperidol-induced catalepsy at 1 to 10 mg/kg, po administered 60 mins after haloperidol-challenge measured after 30 mins; type: ADME, organism-based; details: read-out: Drug uptake
Rattus norvegicus [12] = assay: Reversal of haloperidol-induced catalepsy in orally dosed Sprague-Dawley rat administered 60 mins after haloperidol-challenge measured after 30 mins; type: functional; details: po, read-out: MED
Cytochrome P450 1A2 = molecular target: T2, Cytochrome P450 1A2 (Homo sapiens, UniProt P05177); assay: Inhibition of CYP1A2 in human liver microsomes using acetaminophen as substrate; type: ADME
T2 sequence (P05177 whole entry): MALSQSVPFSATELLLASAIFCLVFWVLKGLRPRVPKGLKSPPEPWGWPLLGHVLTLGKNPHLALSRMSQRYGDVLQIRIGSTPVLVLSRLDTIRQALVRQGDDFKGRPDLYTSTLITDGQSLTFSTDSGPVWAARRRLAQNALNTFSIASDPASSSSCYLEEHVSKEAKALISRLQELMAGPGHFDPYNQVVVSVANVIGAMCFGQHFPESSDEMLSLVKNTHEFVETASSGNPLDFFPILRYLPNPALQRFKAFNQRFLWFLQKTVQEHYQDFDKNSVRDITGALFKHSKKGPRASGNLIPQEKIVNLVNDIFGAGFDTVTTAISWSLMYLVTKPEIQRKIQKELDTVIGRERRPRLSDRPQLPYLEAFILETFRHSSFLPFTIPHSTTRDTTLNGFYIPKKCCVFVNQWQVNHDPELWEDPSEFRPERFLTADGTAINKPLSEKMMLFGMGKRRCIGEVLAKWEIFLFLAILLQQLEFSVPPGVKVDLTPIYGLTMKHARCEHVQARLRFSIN

[13] = Intrinsic clearance in rat hepatic microsomes; type: ADME, Liver; details: read-out: CLH
[14] = Ratio of drug level in brain to plasma in rat at 0.25 mg/kg, iv infused at 0.25 hr rate through cassette dosing schedule; type: ADME, organism-based
Cytochrome P450 2D6 = Cytochrome P450 2D6 (Homo sapiens, UniProt P10635); assay: Inhibition of CYP2D6 in human liver microsomes using dextrophan tartarate as substrate; type: ADME
Chain of Cytochrome P450 2D6 (P10635 whole entry): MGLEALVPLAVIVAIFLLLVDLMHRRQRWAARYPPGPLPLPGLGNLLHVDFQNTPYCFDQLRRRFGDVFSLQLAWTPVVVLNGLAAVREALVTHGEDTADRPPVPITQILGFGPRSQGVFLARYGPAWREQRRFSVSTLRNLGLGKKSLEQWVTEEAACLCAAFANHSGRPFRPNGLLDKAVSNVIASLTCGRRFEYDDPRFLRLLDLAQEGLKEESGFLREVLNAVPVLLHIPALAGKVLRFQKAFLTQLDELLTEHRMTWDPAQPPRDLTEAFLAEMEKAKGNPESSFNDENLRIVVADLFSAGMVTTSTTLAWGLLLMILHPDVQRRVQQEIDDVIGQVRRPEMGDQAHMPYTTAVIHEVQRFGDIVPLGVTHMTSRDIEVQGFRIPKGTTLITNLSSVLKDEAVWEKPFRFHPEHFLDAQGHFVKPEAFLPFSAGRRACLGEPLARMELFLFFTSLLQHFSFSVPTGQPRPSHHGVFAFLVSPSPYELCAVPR

[15] = molecular target: Metabotropic glutamate receptor 4 (Rattus norvegicus, UniProt P31423); assay: Positive allosteric modulator activity at rat mGlu4 receptor
Chain of Metabotropic glutamate receptor 4 (Rattus norvegicus, UniProt P31423) (P31423 whole entry): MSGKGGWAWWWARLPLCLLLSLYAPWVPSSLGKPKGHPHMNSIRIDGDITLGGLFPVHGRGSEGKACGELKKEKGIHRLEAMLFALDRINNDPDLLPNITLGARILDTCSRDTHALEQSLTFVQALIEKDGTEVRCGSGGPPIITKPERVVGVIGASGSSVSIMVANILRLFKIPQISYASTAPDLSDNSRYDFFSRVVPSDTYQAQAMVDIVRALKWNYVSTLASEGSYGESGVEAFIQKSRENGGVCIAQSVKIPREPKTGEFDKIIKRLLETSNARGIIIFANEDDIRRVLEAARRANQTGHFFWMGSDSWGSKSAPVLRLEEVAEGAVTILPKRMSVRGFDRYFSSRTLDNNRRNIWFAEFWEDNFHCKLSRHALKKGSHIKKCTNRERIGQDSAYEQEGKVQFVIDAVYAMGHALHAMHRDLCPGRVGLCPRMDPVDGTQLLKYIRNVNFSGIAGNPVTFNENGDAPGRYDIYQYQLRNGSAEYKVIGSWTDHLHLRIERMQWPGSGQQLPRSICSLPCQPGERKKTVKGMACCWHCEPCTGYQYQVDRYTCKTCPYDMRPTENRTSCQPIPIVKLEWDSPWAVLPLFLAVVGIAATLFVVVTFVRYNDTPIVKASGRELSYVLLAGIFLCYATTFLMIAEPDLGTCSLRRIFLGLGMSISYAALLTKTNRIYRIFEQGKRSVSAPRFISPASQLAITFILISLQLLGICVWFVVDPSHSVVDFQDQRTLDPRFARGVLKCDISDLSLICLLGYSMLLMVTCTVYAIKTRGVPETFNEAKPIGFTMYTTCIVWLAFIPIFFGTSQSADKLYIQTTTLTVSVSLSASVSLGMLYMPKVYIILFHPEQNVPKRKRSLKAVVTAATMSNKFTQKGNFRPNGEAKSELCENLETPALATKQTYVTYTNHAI

[16] = Clearance in Sprague-Dawley rat by LC/MS analysis; type: ADME, organism-based; details: in vivo
[17] = Ratio of drug level in brain of Sprague-Dawley rat model of haloperidol-induced catalepsy at 1 to 10 mg/kg, po to EC50 for positive allosteric modulator activity at rat mGlu4 receptor
Cytochrome P450 3A4 = Cytochrome P450 3A4 (Homo sapiens, UniProt P08684); assay: Inhibition of CYP3A4 in human liver microsomes using 1-hydroxymidazolam as substrate; type: ADME
Chain of Cytochrome P450 3A4 (P08684 whole entry): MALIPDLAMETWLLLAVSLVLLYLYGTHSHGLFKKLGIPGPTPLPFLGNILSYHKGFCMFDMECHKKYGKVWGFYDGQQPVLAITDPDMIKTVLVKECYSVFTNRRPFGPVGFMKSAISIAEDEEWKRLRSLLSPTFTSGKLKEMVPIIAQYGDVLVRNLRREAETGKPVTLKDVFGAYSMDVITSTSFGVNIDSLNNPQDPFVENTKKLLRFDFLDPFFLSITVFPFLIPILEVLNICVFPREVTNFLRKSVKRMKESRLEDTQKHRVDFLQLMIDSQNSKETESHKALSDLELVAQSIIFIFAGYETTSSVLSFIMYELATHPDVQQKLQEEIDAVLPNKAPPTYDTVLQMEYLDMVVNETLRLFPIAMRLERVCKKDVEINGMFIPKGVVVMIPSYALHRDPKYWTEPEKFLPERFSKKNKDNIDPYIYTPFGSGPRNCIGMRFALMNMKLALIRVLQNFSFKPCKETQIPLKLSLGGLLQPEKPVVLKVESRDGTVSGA

[18] = Half life in Sprague-Dawley rat by LC/MS analysis; type: ADME, organism-based; details: in vivo
Plasma = assay: Fraction unbound in rat plasma; type: ADME, cell-free
Brain [19] = assay: Partition coefficient in brain of Sprague-Dawley rat model of haloperidol-induced catalepsy at 1 mg/kg, po administered 60 mins after haloperidol-challenge measured after 30 mins; type: ADME, organism-based; details: 0.5 h
[20] = Ratio of drug level in brain of Sprague-Dawley rat model of haloperidol-induced catalepsy at 1 mg/kg, po to EC50 for positive allosteric modulator activity at rat mGlu4 receptor
[21] = Drug level in brain of Sprague-Dawley rat model of haloperidol-induced catalepsy at 1 mg/kg, po administered 60 mins after haloperidol-challenge measured after 30 mins; type: ADME, organism-based; details: read-out: Drug uptake

T1 sequence (Q14833 whole entry): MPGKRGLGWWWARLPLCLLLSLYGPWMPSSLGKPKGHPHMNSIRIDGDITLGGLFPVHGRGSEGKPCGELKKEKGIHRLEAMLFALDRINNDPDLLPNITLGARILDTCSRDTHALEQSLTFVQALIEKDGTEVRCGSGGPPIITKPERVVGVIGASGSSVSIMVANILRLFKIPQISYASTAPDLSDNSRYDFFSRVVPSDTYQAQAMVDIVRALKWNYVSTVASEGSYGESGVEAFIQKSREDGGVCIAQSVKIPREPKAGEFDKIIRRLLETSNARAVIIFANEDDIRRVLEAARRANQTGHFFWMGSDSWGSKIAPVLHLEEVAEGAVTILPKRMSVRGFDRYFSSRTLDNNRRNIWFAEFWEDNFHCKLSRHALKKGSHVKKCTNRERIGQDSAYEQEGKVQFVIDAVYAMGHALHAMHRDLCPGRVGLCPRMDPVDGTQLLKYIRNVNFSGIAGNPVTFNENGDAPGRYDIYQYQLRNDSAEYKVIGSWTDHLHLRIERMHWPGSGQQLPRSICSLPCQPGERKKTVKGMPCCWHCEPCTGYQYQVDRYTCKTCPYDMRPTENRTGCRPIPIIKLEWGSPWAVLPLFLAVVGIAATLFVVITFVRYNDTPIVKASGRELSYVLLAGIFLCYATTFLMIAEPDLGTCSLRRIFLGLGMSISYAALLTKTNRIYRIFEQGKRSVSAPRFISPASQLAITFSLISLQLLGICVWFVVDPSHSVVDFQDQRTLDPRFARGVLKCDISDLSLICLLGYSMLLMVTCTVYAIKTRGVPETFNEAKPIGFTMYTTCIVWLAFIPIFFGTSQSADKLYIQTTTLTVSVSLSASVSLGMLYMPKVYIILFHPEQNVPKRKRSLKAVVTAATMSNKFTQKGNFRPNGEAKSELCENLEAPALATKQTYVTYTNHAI

Structure (SMILES)	EC50 ([1]; read-out: pEC50 (converted)) [nM]	%max [2] [%]	EC50 ([1]; read-out: EC50) [nM]	further results
Nc1cccnc1C(=O)Nc1ccc(N2Cc3ncccc3C2=O)c(Cl)c1	1260	68.9		
Cc1ncc(Oc2ccc(NC(=O)c3ncccc3N)cc2Cl)cn1	1350	89.8		
Nc1cccnc1C(=O)Nc1ccc(N2CC3(CCCCC3)CC2=O)c(Cl)c1	1290	52		
COc1ccc2c(c1)C(=O)N(c1ccc(NC(=O)c3ncccc3N)cc1Cl)C2	316	71.7		
CCc1cnc(Oc2ccc(NC(=O)c3ccncc3N)cc2Cl)nc1		44.2	> 10000	
Nc1cccnc1C(=O)Nc1ccc(N2Cc3ccc(Cl)cc3C2=O)c(Cl)c1		42.3	> 10000	
Nc1cccnc1C(=O)Nc1ccc(N2C(=O)C3CCC2C3)c(Cl)c1 (stereo not given)		47.7	> 10000	
CC1c2ccccc2C(=O)N1c1ccc(NC(=O)c2ncccc2N)cc1Cl (stereo not given)	3980	76.8		
Cc1cccc2c1C(=O)N(c1ccc(NC(=O)c3ncccc3N)cc1Cl)C2=O	692	122		
CC1(C2CC2)CC(=O)N(c2ccc(NC(=O)c3ncccc3N)cc2Cl)C1 (stereo not given)	2820	66.2		
Nc1cccnc1C(=O)Nc1ccc(N2CC(Cc3ccccc3)CC2=O)c(Cl)c1 (stereo not given)	759	45.3		
CC(C)CC1CC(=O)N(c2ccc(NC(=O)c3ncccc3N)cc2Cl)C1 (stereo not given)	1620	74.5		
Fc1ccc(Nc2n[nH]c3cccnc23)cc1Cl				Activity (Rattus norvegicus [3]): Active; Activity (Rattus norvegicus [4]): Active
CCc1cnc(Oc2ccc(NC(=O)c3nccnc3N)cc2Cl)nc1		104	296	
Nc1cccnc1C(=O)Nc1ccc(N2CC(c3cccnc3)CC2=O)c(Cl)c1 (stereo not given)	2510	92.8		
CCc1cnc(Oc2ccc(NC(=O)c3ncccc3N)cc2Cl)nc1	64.6	97.9		Kp (Brain [5]): 0.2; IC50 (Cytochrome P450 2C9): > 30000 nM; Fu [6]: 0.004; Vd [7]: 0.86 L/kg; Ratio [8]: 1.9; CLint scaled [9]: 17.7 mL/min/kg; Activity (Rattus norvegicus [10]): Active; concentration at 0.5 h [11]: 172 nM; minimal effective dose (Rattus norvegicus [12]): 1 mg/kg; IC50 (Cytochrome P450 1A2): 2600 nM; CLint scaled [13]: 46.1 mL/min/kg; Kp [14]: 0.36; IC50 (Cytochrome P450 2D6): > 30000 nM; EC50 [15]: 46.6 nM; clearance [16]: 13.7 mL/min/kg; Ratio [17]: 3.5; IC50 (Cytochrome P450 3A4): 21100 nM; half-life [18]: 1.5 h; Fu (Plasma): 0.004
Nc1cccnc1C(=O)Nc1ccc(N2C(=O)c3ccccc3C2=O)c(Cl)c1	95.5	89.1		IC50 (Cytochrome P450 2C9): 7200 nM; Fu [6]: 0.007; Vd [7]: 0.85 L/kg; Ratio [8]: 1.2; CLint scaled [9]: 5.8 mL/min/kg; Activity (Rattus norvegicus [3]): Active; IC50 (Cytochrome P450 1A2): > 30000 nM; CLint scaled [13]: 51 mL/min/kg; Kp [14]: 1.31; IC50 (Cytochrome P450 2D6): > 30000 nM; EC50 [15]: 128 nM; Kp (Brain [19]): 0.3; clearance [16]: 3.98 mL/min/kg; IC50 (Cytochrome P450 3A4): > 30000 nM; Ratio [20]: 2; half-life [18]: 3.7 h; Fu (Plasma): 0.003; concentration at 0.5 h [21]: 334 nM
Nc1cccnc1C(=O)Nc1ccc(N2CC(c3c(F)cccc3Cl)CC2=O)c(Cl)c1 (stereo not given)	1860	75.9		
O=C(Nc1ccc(N2C(=O)c3ccccc3C2=O)c(Cl)c1)c1ncccc1O		115	125	
Nc1cccnc1C(=O)Nc1ccc(N2CCc3ccccc3C2=O)c(Cl)c1	912	60.7		
Nc1cccnc1C(=O)Nc1ccc(N2Cc3ccccc3CC2=O)c(Cl)c1	2190	63.2		
Nc1cccnc1C(=O)Nc1cccc(Cl)c1	575	88.1	587	
Nc1cccnc1C(=O)Nc1ccc(N2CCCC2=O)c(Cl)c1		39.6	> 10000	
CC1(C)CC(=O)N(c2ccc(NC(=O)c3ncccc3N)cc2Cl)C1		12.7	> 10000	
Nc1cccnc1C(=O)Nc1ccc(N2Cc3ccccc3C2=O)c(Cl)c1	234	43.9		
Nc1cccnc1C(=O)Nc1ccc(N2CC3(CCCC3)CC2=O)c(Cl)c1		13.8	> 10000	

From ChEMBL document CHEMBL3797196, “Discovery of 3-aminopicolinamides as metabotropic glutamate receptor subtype 4 (mGlu4) positive allosteric modulator warheads engendering CNS exposure and in vivo efficacy” (Bioorg Med Chem Lett, 2016)
